# Measured values: patent US20070027195A1, “Novel compositions comprising higher primary alcohols and nicottinic acid and process of preparation thereof” (PANACEA BIOTEC LTD., priority 2004, published 2007)
# Marks after values point to notes of the source that are not given here.
# Tested on: mice fed with hypercholesterolemic diet
# Assay: Cholesterol diet-induced hypercholesterolemia in mice (serum lipid profile)
# Format: in vivo, Swiss mice
# Conditions: for HDL-C / LDL-C / Total cholesterol / Triglycerides / VLDL-C: hypercholesterolemic diet, fasting serum, mean ± S.E.M.
# Description: In the present invention, the observed unexpected synergistic lipid lowering effect of combination of Extract-A and nicotinic acid is evidenced by the test conducted in mice. Swiss mice of either sex were procured from Central Animal House facility; Panacea Biotec Ltd., India. Animals weighing 20-25 g at the time of testing were used throughout. All animals were dosed sequentially by the oral route with Extract-A and/or nicotinic acid suspended in 0.5% of carboxy methyl cellulose (CMC). A dosing volume of 10 ml/kg was used for each sequential suspension.
# The fasting serum lipid profile (TC, TGs, LDL-C, HDL-C, and VLDL) was estimated before initiation of the experiment. Total study duration was of 8 weeks. Hypercholesterolemia was induced by feeding standard chow mixed with 1% cholesterol and 0.2% cholic acid to mice (Kaur and Kulkarni, 2000). Control animals received standard mice chow for 8 weeks whereas cholesterolemic control animals received hypercholesterolemic diet for 8 weeks. The presence of hyperlipidemia in mice was confirmed by estimating serum lipid parameters after 4 weeks. Thereafter, various doses of Extract-A and/or nicotinic acid were administered for another 4 weeks during which animals were fed with high cholesterol diet. Blood samples were collected from fasted mice and analyzed for any alteration in serum lipid profile after 4 weeks of test compound(s) administration.
# All the data were expressed as mean ±S.E.M. (Standard Error of Mean). Student t-test was used to compare the lipid parameters between animals fed with standard and hypercholesterolemic diet. The difference between various drug treated groups was analyzed by ANOVA followed by Dunnett's test. A value of P<0.05 was considered as statistically significant.
smiles,measurement,setting,value
O=C(O)c1cccnc1 [Nicotinic acid],HDL-C,10 mg/kg p.o. for 4 weeks,45.82 ± 4.9^a mg/dl
same,LDL-C,10 mg/kg p.o. for 4 weeks,65.5 ± 7.01^a mg/dl
same,Total cholesterol,10 mg/kg p.o. for 4 weeks,118.0 ± 4.3^a mg/dl
same,Triglycerides,10 mg/kg p.o. for 4 weeks,33.3 ± 2.6^a mg/dl
same,VLDL-C,10 mg/kg p.o. for 4 weeks,20 ± 0.52^a mg/dl
same,HDL-C,20 mg/kg p.o. for 4 weeks,42.16 ± 3.19^a mg/dl
same,LDL-C,20 mg/kg p.o. for 4 weeks,61.2 ± 2.14^a mg/dl
same,Total cholesterol,20 mg/kg p.o. for 4 weeks,109.5 ± 1.60^a mg/dl
same,Triglycerides,20 mg/kg p.o. for 4 weeks,30.66 ± 1.58^a mg/dl
same,VLDL-C,20 mg/kg p.o. for 4 weeks,6.13 ± 0.31^a mg/dl
same,HDL-C,40 mg/kg p.o. for 4 weeks,51.33 ± 2.04^a mg/dl
same,LDL-C,40 mg/kg p.o. for 4 weeks,44.53 ± 2.17^a mg/dl
same,Total cholesterol,40 mg/kg p.o. for 4 weeks,101.6 ± 2.59^a mg/dl
same,Triglycerides,40 mg/kg p.o. for 4 weeks,29.0 ± 1.46^a mg/dl
same,VLDL-C,40 mg/kg p.o. for 4 weeks,5.8 ± 0.29^a mg/dl
same,Effect on serum lipid parameters in comparison to hypercholesterolemic control (in words),"10-40 mg/kg, p.o., dose dependently",reversed all the serum lipid parameters
